The record followed here is patent US7868135B2, “Compositions of lipopeptide antibiotic derivatives and methods of use thereof” (priority 2003, dated 2011).

Assay [1] concerns Streptococcus pneumoniae (SPN032, ATCC 1081). Description: Intranasal murine lung infection model. Format: in vivo. Particulars: Swiss CD1 mice, i.n. S. pneumoniae, i.v. treatment at 3, 24 and 48 hours post-infection, deaths over ten days. The protocol: (§1) Other exemplary in vivo models of infection that may be used to assess, for example, the efficacy of an antimicrobial lipopeptide of the instant disclosure include the following: (A) a mouse (murine) model of lung infection (pneumonia) wherein the bacterial infection is administered intranasally (i.n.); (B) a murine thigh muscle model wherein the bacterial infection is administered intramuscularly (i.m.) in normal or neutropenic (immunocompromised) mice; and (C) a combination murine thigh muscle model (i.m. infection)/lung (i.n.) infection.
Antimicrobial lipopeptide derivatives of the instant invention were tested for antimicrobial activity against Gram-positive bacteria in an intranasal (i.n.) murine lung infection model (i.e., bacteria were innoculated i.n. and lipopeptide compounds were administered i.v.). Streptococcus pneumoniae (SPN032, ATCC 1081) were grown on 5% sheep blood agar plates for 24 h at 37° C., harvested and then resuspended in 0.9% saline. A group of eight Swiss CD1 mice were sedated with 2% isoflurane, and each was infected i.n. dropwise to the nares with 50 μl of the prepared bacterial inoculum (i.e., a dose of about 10^6 CFU/mouse). […] The ED50 (mg/kg) for each compound was calculated using the method of Reed and Meunch (Am. J. Hyg. 27: 493, 1938).

Assay [2] has as its system Staphylococcus aureus (SAU0017). Description: Thigh infection model in neutropenic mice. Format: in vivo. Particulars: neutropenic Swiss CD1 mice, i.m. S. aureus, i.v. treatment two hours post-infection, thigh CFU at 24 hours. The procedure:
as §1

Assay [3] relates to Streptococcus pneumoniae (SPN0002). In words: Lung infection model in neutropenic mice. Format: in vivo. The procedure: Antimicrobial lipopeptide derivatives of the instant invention were tested for antimicrobial activity against Gram-positive bacteria in an intranasal (i.n.), immunocomprimised murine lung infection model (i.e., bacteria were innoculated i.n. and lipopeptide compounds were administered i.v.). Streptococcus pneumoniae (SPN0002) were grown on 5% sheep blood agar plates for 24 h at 37° C., harvested and then resuspended in 0.9% saline. A group of three to four Swiss CD1 mice were rendered neutropenic by administration of cyclophosphamide (Sigma Chemical Co.; 150 mg/kg, i.p.) on day −4 and −1 before infection. At time −18 to −24 hours, each mouse was infected i.n. dropwise via the nares with 50 μl of the prepared bacterial inoculum (i.e., a dose of about 5×10^6 CFU/mouse). At 18 to 24 hours post-infection, the groups of mice received i.v. (1) a lipopeptide derivative formulated in a 5% D-mannitol solution at a dose of about 1 mg/kg, 3 mg/kg, 10 mg/kg, or 30 mg/kg; (2) the 5% mannitol vehicle alone at a dose volume of 10 mL/kg; or (3) a known antibiotic, such as ampicillin, at a similar dose as the lipopeptide compounds. At 18 to 24 hours post-antibiotic treatment, mice were sacrificed and lungs harvested. Lungs were sampled by spreading homogenates on blood agar plates and incubating for 24 h at 37° C., and then counting the number of CFU. The EKill (killing effect; i.e., log10 CFU/lung reduction as compared to CFU count at intial treatment time) and the EMax (maximum reduction effect; i.e., log10 CFU/lung reduction as compared to CFU count of control at 24 hours) for each compound was calculated.

Assay [4] has as its system Staphylococcus aureus (MSSA). Particulars: 24 h. The essentials:
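Broth microdilution MIC per NCCLS M7-A6 with doubling serial dilutions, in cation-adjusted Mueller-Hinton broth supplemented with 0.625 mM calcium.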

For `CCCCCCCCCCCCCCC(=O)NC(CC(=O)O)C(=O)NC1C(=O)N2CCCCC2C(=O)NC(C(C)C(=O)O)C(=O)NC(CC(=O)O)C(=O)NCC(=O)NC(CC(=O)O)C(=O)NCC(=O)NC(C(C)NC(=O)CNC(=O)[C@@H](N)CCCCN)C(=O)NC(C(C)C)C(=O)N2CCCC2C(=O)NC1C` (some centres unmarked) [Compound 4, C15-Amphomycin-9-Gly-Lys], in assay [1], the ED50 is 1.3 mg/kg.
On to `CCCCCCCCCCCCCCC(=O)NC(CC(=O)O)C(=O)NC1C(=O)N2CCCCC2C(=O)NC(C(C)C(=O)O)C(=O)NC(CC(=O)O)C(=O)NCC(=O)NC(CC(=O)O)C(=O)NCC(=O)NC(C(C)NC(=O)CCN)C(=O)NC(C(C)C)C(=O)N2CCCC2C(=O)NC1C` (stereo not drawn) [Compound 147, C15-Amphomycin-9-(β-Ala)], for which the ED50 in assay [2] fell in the range of 1.1 to 1.8 mg/kg. Also, the “EKill (log10 CFU/lung reduction versus count at initial treatment time)” value in assay [3] (30 mg/kg i.v.) turned out to be 3.2 log10 CFU/lung. Besides, the “log10 CFU/lung reduction (EMax, versus control at 24 hours)” value in assay [3] (highest dose level 30 mg/kg i.v.) is reported as 4.0 log10 CFU/lung.
For the molecule `CCCCCCCCCCCCCCC(=O)NC(CC(=O)O)C(=O)NC1C(=O)N2CCCCC2C(=O)NC(C(C)C(=O)O)C(=O)NC(CC(=O)O)C(=O)NCC(=O)NC(CC(=O)O)C(=O)NCC(=O)NC(C(C)NC(=O)CN(C)C(=O)[C@@H](N)CCCCN)C(=O)NC(C(C)C)C(=O)N2CCCC2C(=O)NC1C` (some centres unmarked) [Compound 199, C15-Amphomycin-9-Sar-Lys], the minimal inhibitory concentration (MIC) in assay [4] was 0.5 to 1 µg/mL.

Usually ED50 stands for the dose that gives a 50% effect, or the effect in half of the subjects. The MIC is the lowest concentration found to suppress growth.
